Legend:
[1] = Plasma concentration of (-)-halofenic acid after daily oral 400 mg arhalofenate (LC-MS/MS); assay type: in vivo, human
Protocol: Methods used in relation to FIGS. 1-2 showing the pharmacokinetic profile of (-)-halofenic acid were as follows:
Plasma proteins in human plasma samples containing of (-)-halofenic acid, an internal standard (I.S.) and heparin as the anticoagulant were precipitated with acetonitrile. The samples were vortex mixed, centrifuged and an aliquot was analyzed by reversed phase high performance liquid chromatography using a Phenomenex Polar RP column maintained at 45 °C. The mobile phase was nebulized using heated nitrogen in a Z-spray source/interface and the ionized compounds were detected using a tandem quadrupole mass spectrometer.
The plasma concentrations were rounded to the nearest one-tenth µg/mL before the calculations. Plasma samples with concentrations below the quantifiable limit of 1.0 µg/mL (BQL) were assigned values of zero.

IL-1β = IL-1β mRNA and secretion in LPS stimulated primary mouse macrophages; assay type: cell-based; settings: 75 and 150 µM, 1 hour before 100 ng/mL LPS for 8 hours
Protocol: Methods used in relation to FIGS. 4-5 showing effects of (-)-halofenic acid IL-1β were as follows:
Eight week-old male C57BL/6J mice were injected intra-peritoneally with 2.5 mL of 3% thioglycollate. Three days after injection, mice were sacrificed by cervical dislocation. Macrophages were harvested immediately by injecting 5 mL of PBS into the intra-peritoneal cavity, surgically exposing the intra-peritoneal cavity and aspirating the intra-peritoneal fluid with a 1 mL syringe. Macrophages from multiple animals were pooled and centrifuged at 1500 rpm, 10 min at 4 °C. Contaminating red blood cells were removed from the pellet by lysis with 10 mL RBC lysis buffer for 5min at room temperature, followed by centrifugation at 1500 rpm, 10 min at 4 °C. The cells were washed once and re-suspended in RPMI 1640, 10% FBS/0.1% Pen/Strep and plated into multi-well plates (1,000,000 cells/well for 24 well plates and 100,000 cells/well for 96 well plates). The cells were cultured for 30 hours, re-fed with fresh RPMI 1640, 0.5% FBS and incubated overnight. […]
The cells were harvested in Qiazol lysis solution for gene expression analysis. […] The Ct values for IL-1β were determined using ABI Sequence Detection Software. […] The fold change is then calculated using the formula 2^-[delta][delta]Ct. […]

3T3-L1 adipocytes = experiment: Example 1: suppression of uric-acid induced inflammation in vitro; assay type: cell-based, murine; settings: 50-150 µM, uric acid 5 or 15 mg/dL, 3 or 7 days
Protocol: Differentiated murine 3T3-L1 adipocytes are cultured in vitro in 24 well plates. To the culture medium (-)-halofenic acid is added at a final concentration of 50- 150 µM prior to the addition of uric acid at 5 mg/dL or 15 mg/dL and the culture continued for 3 or 7 days. A parallel culture of cells is conducted in the presence of a vehicle such as dimethylsulfoxide (DMSO). At the end of the culture period media is removed, cells are isolated and messenger RNA prepared. The levels of secreted cytokines representing a panel of pro-inflammatory cytokines including but not restricted to monocyte chemoatractant protein-1 (MCP-1), tumor necrosis factor α (TNF-α), interlekin-1β, (IL-1β), interleukin-6 (IL-6) and interleukin-12 (Il-12) are determined in the media isolated from the cells using commercially available cytokine assay kits. The levels of gene expression for the mRNAs for a panel of pro-inflammatory cytokines including but not restricted to monocyte chemoatractant protein-1 (MCP-1), tumor necrosis factor α (TNF-α), interlekin-1β, (IL-1β), interleukin-6 (IL-6) and interleukin-12 (Il-12) are determined using real-time PCR. […] A similar study is also conducted in primary mouse macrophages and human umbilical vein endothelial cells.

serum uric acid [2] = experiment: Phase 1 multiple-dose study MBX102-2DM01011b: serum uric acid after daily oral dosing for 10 days; assay type: in vivo, human; settings: for Mean % change: Day 9 vs baseline; for Mean change at Day 9: change from baseline; for Mean uric acid at Day 9: healthy adult subjects
Protocol: Methods used in relation to FIG. 3 showing reduction in serum uric acid in subjects over time following once daily dosing with arhalofenate were as follows.
A single centre, Phase 1, placebo- and positive-controlled, double-blind, randomized, dose escalation study (MAD study, MBX102-2DM01011b) was conducted to evaluate the multiple-dose pharmacokinetics (PK) of (-)-halofenate administered as a daily dose orally for 10 days, at the protocol-specified doses in healthy adult subjects. A total of 119 subjects completed study treatment according to protocol: 6 subjects received MBX-102 100 mg/day for 10 days; 6 subjects received MBX-102 200 mg/day for 10 days; 9 subjects received MBX-102 400 mg/day for 10 days; 20 subjects received MBX-102 600 mg/day for 10 days; 10 subjects received MBX-102 600 mg Enteric Coated (EC) /day for 10 days; 9 subjects received MBX-102 800 mg EC/day for 10 days; 10 subjects received MBX-102 1000 mg EC/day for 10 days; 24 subjects received placebo treatment daily for 10 days; and 25 subjects received naproxen 500 mg b.i.d. monotherapy for 7 days. In this study, serum uric acid was measured at screening and on Days 1, 3, 5, 7, 9, 14, and 21.

[3] = system: high sensitivity C-Reactive Protein (hs-CRP); experiment: Phase 1 multiple-dose study M102-0507: change in hs-CRP in type 2 diabetic patients on Glynase; assay type: in vivo, human
Protocol: Data presented in FIGS. 6 and 7 were generated based on a single-center, Phase 1, randomized, single-blind, multiple-dose study (M102-0507) evaluating the effect of (-)-halofenate given to type 2 diabetic patients who were receiving a stable dose of Glynase® (micronized glyburide). Eligible patients were initially dosed for 3 days with Glynase® 3 mg/day, and if safety and tolerability were acceptable to the Investigator, the dose was increased to Glynase® 6 mg/day for 4 days, followed by 14 days of Glynase® 6 mg and either (-)-halofenate 400 mg or 600 mg administration until Day 21, the patients were discharged on Day 22.
In this study, change in high sensitivity C-Reactive Protein (hs-CRP) from baseline was one of the endpoints. […] At Day 22, the mean percentage changes in C-reactive protein compared to Day 1 were -21.1% and -32.9% in Group 1 ((-)-halofenate 400 mg) and Group 2 ((-)-halofenate 600 mg), respectively.

serum uric acid [4] = settings: monotherapy at 40, 80, 120, 160 and 240 mg/day, gout patients; cited from earlier work
[5] = 600 mg Enteric Coated (EC)/day for 10 days

## O=C(O)C(Oc1cccc(C(F)(F)F)c1)c1ccc(Cl)cc1 (single isomer, unassigned; (-)) [(-)-halofenic acid, (-)-4-chlorophenyl-(3-trifluoromethylphenoxy) acetic acid]
[1]; Day 15 and Day 30, daily oral 400 mg arhalofenate, FIG. 2
  intraday plasma concentration: relatively constant
[1]; plasma, daily oral 400 mg arhalofenate for 30 days, FIGS. 1-2
  half-life: long half-life
IL-1β; FIG. 4
  messenger RNA encoding the pro-inflammatory cytokine IL-1β: lower the messenger RNA
IL-1β; FIG. 5
  secretion of the pro-inflammatory cytokine IL-1β: lowering the secretion

## CC(=O)NCCOC(=O)[C@H](Oc1cccc(C(F)(F)F)c1)c1ccc(Cl)cc1 [(-)-halofenate, (-)-(R)-(4-chloro-phenyl)-(3-trifluoromethyl-phenoxy)-acetic acid 2-acetylamino-ethyl ester]
3T3-L1 adipocytes
  expression and secretion of panel of pro-inflammatory cytokines: reduced level of expression and consequently secretion
  uptake of uric acid into 3T3-L1 adipocytes: prevents the uptake of uric acid
Serum uric acid [2]; 400 mg/day orally for 10 days
  Mean % change: -21%
  Mean change at Day 9: -1.02 mg/dL
  Mean uric acid at Day 9: 3.89 mg/dL
Serum uric acid [2]; [5]
  Mean % change: -30%
  Mean change at Day 9: -1.69 mg/dL
  Mean uric acid at Day 9: 3.92 mg/dL
Serum uric acid [2]; 600 mg/day orally for 10 days
  Mean % change: -33%
  Mean change at Day 9: -1.65 mg/dL
  Mean uric acid at Day 9: 3.40 mg/dL
Serum uric acid [2]; 800 mg EC/day for 10 days
  Mean % change: -32%
  Mean change at Day 9: -1.77 mg/dL
  Mean uric acid at Day 9: 3.83 mg/dL
Serum uric acid [2]; 1000 mg EC/day for 10 days
  Mean % change: -45%
  Mean change at Day 9: -2.44 mg/dL
  Mean uric acid at Day 9: 3.04 mg/dL
Serum uric acid [2]; all dose levels tested, dose dependent, over a period of time
  reduction in serum uric acid: gradual reduction
[3]; (-)-halofenate 600 mg/day Day 8-21 with Glynase 6 mg/day, type 2 diabetic patients
  Day 22 hs-CRP: 4.4
[3]; Group 1: 400 mg/day Day 8-21 with Glynase 6 mg/day
  mean percentage change in C-reactive protein at Day 22 compared to Day 1: -21.1%
[3]; Group 2: 600 mg/day Day 8-21 with Glynase 6 mg/day, Day 8 = Glyburide only phase
  Mean % change from Day 8 (Day 22 hs-CRP): -33.3%

## O=c1[nH]cnc2c(CN3C[C@H](CO)[C@@H](O)C3)c[nH]c12 [BCX4208, 7-(((3R,4R)-3-hydroxy-4-(hydroxymethyl)pyrrolidin-1-yl)methyl)-3H-pyrrolo[3,2-d]pyrimidin-4(5H)-one]
Serum uric acid [4]
  serum uric acid: rapidly and significantly reduced

From patent EP2775836B1, “METHODS FOR TREATING GOUT FLARES” (CymaBay Therapeutics, Inc., priority 2011, dated 2013)
